Legend:
Assay in all cases: NCI-60 one-dose screen
Format in all cases: cell-based, human
SF-268 = conditions: 10 µM, 48 h, CNS Cancer
Experimental: (§1) Adapted from NCI-60 Screening Methodology, one-dose screen:20 Briefly, human tumor cell lines, grown in RPMI 1640 containing 5% FBS and 2 mM L-glutamine, were plated in 96 well plates at densities ranging from 5,000 to 40,000 cells/well 24 h prior to addition of test compounds (here 10 μM 2). 400x solutions of test compounds were prepared in DMSO, then diluted to 2x in medium supplemented with 50 μg/mL gentamicin. 100 μl of this 2x stock was added to cells previously plated in 100 μl medium, resulting in the desired final compound concentration. Cells were fixed in situ with cold TCA: untreated cells at the time of compound addition (Tz) and treated cells 48 h after addition of compound (Ti). Cells were washed, then su f rh damine s uti n μ at . w/v in acetic acid was added to each well and incubated for 10 minutes at room temperature. After washing again, the plates were air dried and bound stain solubilized with 10 mM Trizma base before absorbance was […]
(§2) Percentage growth (%Growth) was calculated as follows:
(§3) when Ti ≥ Tz, %Growth = Ti − Tz x 100 where Ti = absorbance from compound treated cells, Tz = absorbance from untreated cells at time zero, and C = absorbance from control (DMSO) treated cells. […]

786-0 = conditions: 10 µM, 48 h, Renal Cancer
Experimental: as §1, §2, §3

HCT-15 = conditions: 10 µM, 48 h, Colon Cancer
Experimental: as §1, §2, §3

A549/ATCC = conditions: 10 µM, 48 h, Non-Small Cell Lung Cancer
Experimental: as §1, §2, §3

SNB-75 = conditions: 10 µM, 48 h, CNS Cancer
Experimental: as §1, §2, §3

HOP-62 = conditions: 10 µM, 48 h, Non-Small Cell Lung Cancer
Experimental: as §1, §2, §3

TK-10 = conditions: 10 µM, 48 h, Renal Cancer
Experimental: as §1, §2, §3

SN12C = conditions: 10 µM, 48 h, Renal Cancer
Experimental: as §1, §2, §3

DU-145 = conditions: 10 µM, 48 h, Prostate Cancer
Experimental: as §1, §2, §3

U251 = conditions: 10 µM, 48 h, CNS Cancer
Experimental: as §1, §2, §3

M14 = conditions: 10 µM, 48 h, Melanoma
Experimental: as §1, §2, §3

RXF 393 = conditions: 10 µM, 48 h, Renal Cancer, values <0 indicate lethality
Experimental: as §1, §2, §3

SK-MEL-5 = conditions: 10 µM, 48 h, Melanoma, values <0 indicate lethality
Experimental: as §1, §2, §3

RPMI-8226 = conditions: 10 µM, 48 h, Leukemia
Experimental: as §1, §2, §3

PC-3 = conditions: 10 µM, 48 h, Prostate Cancer
Experimental: as §1, §2, §3

T-47D = conditions: 10 µM, 48 h, Breast Cancer
Experimental: as §1, §2, §3

NCI/ADR-RES = conditions: 10 µM, 48 h, Ovarian Cancer
Experimental: as §1, §2, §3

ACHN = conditions: 10 µM, 48 h, Renal Cancer
Experimental: as §1, §2, §3

MDA-MB-468 = conditions: 10 µM, 48 h, Breast Cancer, values <0 indicate lethality
Experimental: as §1, §2, §3

SK-MEL-28 = conditions: 10 µM, 48 h, Melanoma
Experimental: as §1, §2, §3

EKVX = conditions: 10 µM, 48 h, Non-Small Cell Lung Cancer
Experimental: as §1, §2, §3

LOX IMVI = conditions: 10 µM, 48 h, Melanoma
Experimental: as §1, §2, §3

SF-539 = conditions: 10 µM, 48 h, CNS Cancer
Experimental: as §1, §2, §3

SNB-19 = conditions: 10 µM, 48 h, CNS Cancer
Experimental: as §1, §2, §3

OVCAR-3 = conditions: 10 µM, 48 h, Ovarian Cancer
Experimental: as §1, §2, §3

SR = conditions: 10 µM, 48 h, Leukemia
Experimental: as §1, §2, §3

HL-60(TB) = conditions: 10 µM, 48 h, Leukemia
Experimental: compounds with known characteristics were included as controls. Quantification of test and control compounds was performed by LC-MS/MS using an 8-point calibration curve under Cyprotex standard analytical conditions. The initial concentration (C0) at time zero was determined from the dosing solution, and recovery was calculated based on concentrations […]
The apparent permeability coefficient (Papp) is calculated from the equation (where dQ/dt is the drug permeation rate across the cells, C0 is the concentration in the donor compartment at time zero, and A is the area of the cell monolayer):
Efflux ratio (ER) is calculated from mean A-B and B-A data: […]
Adapted from NCI-60 Screening Methodology, one-dose screen:20 Briefly, human tumor cell lines, grown in RPMI 1640 containing 5% FBS and 2 mM L-glutamine, were plated in 96 well plates at densities ranging from 5,000 to 40,000 cells/well 24 h prior to addition of test compounds (here 10 μM 2). […] After washing again, the plates were air dried and bound stain solubilized with 10 mM Trizma base before absorbance was […]
as §2, §3

Question: With `Cc1cc2c(NC(=O)c3cc(NC(=O)c4ccco4)cc(-c4ccn(C)n4)c3)cccc2nn1` [Compound 2] as the compound, how does the “%Growth” value (SF-268) read?
Answer: Its value is 72%.

Question: And the “%Growth” value (786-0)?
Answer: Its value is 57%.

Question: What about the “%Growth” value (HCT-15) of the same compound?
Answer: Its value is 64%.

Question: What about the “%Growth” value (A549/ATCC) of the same compound?
Answer: Its value is 61%.

Question: And the “%Growth” value (SNB-75)?
Answer: Its value is 27%.

Question: And the “%Growth” value (HOP-62)?
Answer: Its value is 67%.

Question: What about the “%Growth” value (TK-10) of the same compound?
Answer: The value was 78%.

Question: And the “%Growth” value (SN12C)?
Answer: Its value is 63%.

Question: And the “%Growth” value (DU-145)?
Answer: The value was 87%.

Question: What about the “%Growth” value (U251) of the same compound?
Answer: Its value is 61%.

Question: And the “%Growth” value (M14)?
Answer: The value was 25%.

Question: What about the “%Growth” value (RXF 393) of the same compound?
Answer: Its value is -5%.

Question: What about the “%Growth” value (SK-MEL-5) of the same compound?
Answer: The value was -36%.

Question: What about the “%Growth” value (RPMI-8226) of the same compound?
Answer: The value was 32%.

Question: What about the “%Growth” value (PC-3) of the same compound?
Answer: The value was 54%.

Question: And the “%Growth” value (T-47D)?
Answer: The value was 44%.

Question: And the “%Growth” value (NCI/ADR-RES)?
Answer: The value was 91%.

Question: What about the “%Growth” value (ACHN) of the same compound?
Answer: The value was 73%.

Question: And the “%Growth” value (MDA-MB-468)?
Answer: Its value is -19%.

Question: What about the “%Growth” value (SK-MEL-28) of the same compound?
Answer: The value was 68%.

Question: And the “%Growth” value (EKVX)?
Answer: The value was 63%.

Question: And the “%Growth” value (LOX IMVI)?
Answer: Its value is 34%.

Question: And the “%Growth” value (SF-539)?
Answer: The value was 44%.

Question: What about the “%Growth” value (SNB-19) of the same compound?
Answer: Its value is 66%.

Question: What about the “%Growth” value (OVCAR-3) of the same compound?
Answer: The value was 23%.

Question: And the “%Growth” value (SR)?
Answer: Its value is 19%.

Question: And the “%Growth” value (HL-60(TB))?
Answer: The value was 25%.
